Experiments:
HCT116 cells = assay: Whole cell cytotoxicity assay, Sulforhodamine B; format: cell-based; conditions: Homo sapiens, HCT-116, HCT116, 96 hours incubation, SRB; for GI50: read-out: GI50 HCT116 cell growth; for IC50: read-out: IC50 values in this assay (HCT116 cell growth)
Outline: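 HCT116 cells (500/well) in DMEM/10% FBS/2 mM glutamine were preincubated 24 h, then exposed to compound for 96 h at 37 °C, 5% CO2, in duplicate. Cells were fixed with TCA and stained with sulforhodamine B (A570). GI50, TGI and LC50 were derived relative to a time-zero plate and an untreated control.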

[1] = molecular target: T1, N-terminal GST-tagged recombinant human Flt3, residues 564-end (Homo sapiens, UniProt P36888); assay: Flt3 kinase inhibition assay (33P-ATP filter assay); format: biochemical; conditions: 40 minutes at room temperature
T1 construct: recombinant human Flt3, residues 564-end; GST (N); purchased Upstate USA Inc, 706 Forest Street, Charlottesville, Va
T1 sequence (P36888 564-993 limits assumed): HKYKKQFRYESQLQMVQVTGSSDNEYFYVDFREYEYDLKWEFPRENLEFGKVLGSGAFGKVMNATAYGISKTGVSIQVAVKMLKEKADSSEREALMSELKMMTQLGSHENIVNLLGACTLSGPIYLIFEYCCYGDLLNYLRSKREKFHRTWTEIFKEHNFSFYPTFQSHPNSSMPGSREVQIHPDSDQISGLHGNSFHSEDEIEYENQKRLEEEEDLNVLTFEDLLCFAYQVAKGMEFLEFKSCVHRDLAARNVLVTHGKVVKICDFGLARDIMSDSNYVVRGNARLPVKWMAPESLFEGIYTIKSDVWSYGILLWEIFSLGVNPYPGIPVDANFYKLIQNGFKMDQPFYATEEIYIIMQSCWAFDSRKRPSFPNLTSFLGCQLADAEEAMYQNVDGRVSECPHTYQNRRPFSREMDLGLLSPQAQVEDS
Outline: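 Serial compound dilutions incubated 40 min at room temperature with 5-10 mU Flt3 kinase, 50 μM peptide substrate and [γ-33P]ATP/10 mM magnesium acetate, pH 7.0. Phosphoric acid stop, filter capture and scintillation counting; activity compared with uninhibited reactions.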

[2] = molecular target: T2, N-terminal His6-tagged recombinant human KDR, residues 790-end (Homo sapiens, UniProt P35968); assay: KDR kinase inhibition assay (33P-ATP filter assay); format: biochemical
T2 construct: recombinant human KDR, residues 790-end; His6 (N); purchased Upstate USA Inc, 706 Forest Street, Charlottesville, Va
T2 sequence (P35968 790-1356 limits assumed): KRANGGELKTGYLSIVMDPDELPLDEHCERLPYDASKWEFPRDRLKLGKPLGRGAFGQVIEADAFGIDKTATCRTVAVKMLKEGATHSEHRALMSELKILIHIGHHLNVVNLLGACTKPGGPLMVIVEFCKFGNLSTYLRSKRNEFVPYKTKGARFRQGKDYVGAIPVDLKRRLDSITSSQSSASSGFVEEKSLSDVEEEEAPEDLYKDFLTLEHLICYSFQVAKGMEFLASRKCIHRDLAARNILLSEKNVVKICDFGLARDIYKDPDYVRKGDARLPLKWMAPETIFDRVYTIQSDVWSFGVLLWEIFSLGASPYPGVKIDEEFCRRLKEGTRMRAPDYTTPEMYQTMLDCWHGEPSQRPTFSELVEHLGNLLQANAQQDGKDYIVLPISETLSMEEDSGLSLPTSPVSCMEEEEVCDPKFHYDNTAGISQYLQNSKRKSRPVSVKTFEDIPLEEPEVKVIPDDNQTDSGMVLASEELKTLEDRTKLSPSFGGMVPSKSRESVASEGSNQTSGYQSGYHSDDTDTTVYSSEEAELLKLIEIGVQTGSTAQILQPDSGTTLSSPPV
Outline: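 Radiometric filter assay: reaction started with Mg acetate (10 mM)/[γ-33P]ATP mix, run 40 min at room temperature in 8 mM MOPS pH 7.0 with 0.2 mM EDTA, MBP substrate (0.33 mg/mL) and recombinant KDR 790-end (5-10 mU). Phosphate incorporation by scintillation counting of P30 filtermats, compared with uninhibited reactions.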

[3] = group with IC50 greater than 100 nM

SMILES | IC50 [1] | IC50 ([2]; 40 minutes at room temperature) | IC50 [2, 3] | GI50 (HCT116 cells) | IC50 (HCT116 cells)
Cc1cc(Nc2cc(NCCN3CCN(C)CC3)nc(-c3ccccc3)n2)n[nH]1 [Compound 13, N^4-(5-methyl-1H-pyrazol-3-yl)-N^6-(2-(4-methylpiperazin-1-yl)ethyl)-2-phenylpyrimidine-4,6-diamine] | ≤ 0.1 µM | ≤ 0.1 µM |  | ≤ 1 µM | 
Cc1cc(Nc2cc(N3CCN(C)CC3)nc(-c3ccco3)n2)n[nH]1 [Compound 14, 2-(furan-2-yl)-N-(5-methyl-1H-pyrazol-3-yl)-6-(4-methylpiperazin-1-yl)-pyrimidin-4-amine] | ≤ 0.1 µM |  | ≤ 1 µM |  | 1 to 10 µM
Cc1cc(Nc2cc(NC3CCOCC3)nc(-c3cc4ccccc4o3)n2)n[nH]1 [Compound 15, 2-(benzofuran-2-yl)-N^4-(tetrahydro-2H-pyran-4-yl)-N^6-(5-methyl-1H-pyrazol-3-yl)-pyrimidine-4,6-diamine] | ≤ 0.1 µM | ≤ 0.1 µM |  | ≤ 1 µM | 
Cc1cc(Nc2cc(N3CCN(C)CC3)nc(-c3cccc(-c4ccccc4)c3)n2)n[nH]1 [Compound 16, 2-(biphenyl-3-yl)-N-(5-methyl-1H-pyrazol-3-yl)-6-(4-methylpiperazin-1-yl)pyrimidin-4-amine] | ≤ 0.1 µM | ≤ 0.1 µM |  | ≤ 1 µM | 
Cc1cc(Nc2cc(NC3CCOCC3)nc(-c3ccc(F)cc3)n2)n[nH]1 [Compound 19, 2-(4-fluorophenyl)-N^4-(5-methyl-1H-pyrazol-3-yl)-N^6-(tetrahydro-2H-pyran-4-yl)pyrimidine-4,6-diamine] | ≤ 0.1 µM |  | ≤ 1 µM |  | 1 to 10 µM
Cc1cc(Nc2cc(NC3CCOCC3)nc(-c3cccc(F)c3)n2)n[nH]1 [Compound 20, 2-(3-fluorophenyl)-N^4-(5-methyl-1H-pyrazol-3-yl)-N^6-(tetrahydro-2H-pyran-4-yl)pyrimidine-4,6-diamine] | ≤ 0.1 µM | ≤ 0.1 µM |  |  | 1 to 10 µM
Cc1cc(Nc2cc(NC3CCOCC3)nc(-c3ccc(Cl)cc3)n2)n[nH]1 [Compound 22, 2-(4-chlorophenyl)-N^4-(5-methyl-1H-pyrazol-3-yl)-N^6-(tetrahydro-2H-pyran-4-yl)pyrimidine-4,6-diamine] | ≤ 0.1 µM |  | ≤ 1 µM |  | 1 to 10 µM
COc1cccc(-c2nc(Nc3cc(C)[nH]n3)cc(NC3CCOCC3)n2)c1 [Compound 29, 2-(3-methoxyphenyl)-N^4-(5-methyl-1H-pyrazol-3-yl)-N^6-(tetrahydro-2H-pyran-4-yl)pyrimidine-4,6-diamine] | ≤ 0.1 µM | ≤ 0.1 µM |  |  | 1 to 10 µM
Cc1cc(Nc2cc(N3CCN(C)CC3)nc(-c3ccc(F)cc3)n2)n[nH]1 [Compound 32, 2-(4-fluorophenyl)-N-(5-methyl-1H-pyrazol-3-yl)-6-(4-methylpiperazin-1-yl)pyrimidin-4-amine] | ≤ 0.1 µM |  | ≤ 1 µM | ≤ 1 µM | 
Cc1cc(Nc2cc(N3CCN(C)CC3)nc(-c3cccc(F)c3)n2)n[nH]1 [Compound 33, 2-(3-fluorophenyl)-N-(5-methyl-1H-pyrazol-3-yl)-6-(4-methylpiperazin-1-yl)pyrimidin-4-amine] | ≤ 0.1 µM | ≤ 0.1 µM |  | ≤ 1 µM | 
Cc1cc(Nc2cc(N3CCN(C)CC3)nc(-c3cccc(N(C)C)c3)n2)n[nH]1 [Compound 86, 2-(3-(dimethylamino)phenyl)-N-(5-methyl-1H-pyrazol-3-yl)-b-(4-methylpiperazin-1-yl)pyrimidin-4-amine] | ≤ 0.1 µM |  |  | ≤ 1 µM | 
Cc1cc(Nc2cc(NC3CCOCC3)nc(-c3ccc(-c4ccccc4)cc3)n2)n[nH]1 [Example 158, 2-(biphenyl-4-yl)-N^4-(5-methyl-1H-pyrazol-3-yl)-N^6-(tetrahydro-2H-pyran-4-yl)pyrimidine-4,6-diamine] | ≤ 0.1 µM |  |  |  | 1 to 10 µM
Cc1cc(Nc2cc(N3CCN(C)CC3)nc(-c3ccc([N+](=O)[O-])cc3)n2)n[nH]1 [Example 164, N-(5-methyl-1H-pyrazol-3-yl)-6-(4-methylpiperazin-1-yl)-2-(4-nitrophenyl)pyrimidin-4-amine] | ≤ 0.1 µM |  |  |  | 1 to 10 µM
Cc1cc(Nc2cc(N3CCN(C)CC3)nc(-c3cc(F)cc(F)c3)n2)n[nH]1 [Example 170, 2-(3,5-difluorophenyl)-N-(5-methyl-1H-pyrazol-3-yl)-6-(4-methylpiperazin-1-yl)pyrimidin-4-amine] | ≤ 0.1 µM |  |  | ≤ 1 µM | 

The next lines start with results.

IC50 [1] | IC50 ([2]; 40 minutes at room temperature) | IC50 [2, 3] | SMILES | GI50 (HCT116 cells) | IC50 (HCT116 cells)
≤ 0.1 µM | ≤ 0.1 µM |  | Cc1cc(Nc2cc(N3CCN(C)CC3)nc(-c3cc4ccccc4o3)n2)n[nH]1 [Compound 1, 2-(benzofuran-2-yl)-N-(5-methyl-1H-pyrazol-3-yl)-6-(4-methylpiperazin-1-yl)pyrimidin-4-amine] | ≤ 1 µM | 
≤ 0.1 µM | ≤ 0.1 µM |  | Cc1cc(Nc2cc(N3CCN(C)CC3)nc(-c3cc4ccccc4n3C)n2)n[nH]1 [Compound 2, 2-(1-methyl-1H-indol-2-yl)-N-(5-methyl-1H-pyrazol-3-yl)-6-(4-methylpiperazin-1-yl)pyrimidin-4-amine] | ≤ 1 µM | 
≤ 0.1 µM | ≤ 0.1 µM |  | Cc1cc(Nc2cc(N3CCC(O)CC3)nc(-c3cc4ccccc4n3C)n2)n[nH]1 [Compound 3, 1-(6-(5-methyl-1H-pyrazol-3-ylamino)-2-(1-methyl-1H-indol-2-yl)pyrimidin-4-yl)piperidin-4-ol] |  | 1 to 10 µM
≤ 0.1 µM |  | ≤ 1 µM | Cc1cc(Nc2cc(N(C)CCN(C)C)nc(-c3cc4ccccc4n3C)n2)n[nH]1 [Compound 4, N^4-(2-(dimethylamino)ethyl)-N^4-methyl-2-(1-methyl-1H-indol-2-yl)-N^6-(5-methyl-1H-pyrazol-3-yl)pyrimidine-4,6-diamine] | ≤ 1 µM | 
≤ 0.1 µM |  | ≤ 1 µM | Cc1cc(Nc2cc(NCCN3CCOCC3)nc(-c3cc4ccccc4n3C)n2)n[nH]1 [Compound 5, 2-(1-methyl-1H-indol-2-yl)-N^4-(5-methyl-1H-pyrazol-3-yl)-N^6-(2-morpholinoethyl)pyrimidine-4,6-diamine] |  | 1 to 10 µM
≤ 0.1 µM | ≤ 0.1 µM |  | CC(=O)N1CCN(c2cc(Nc3cc(C)[nH]n3)nc(-c3cc4ccccc4n3C)n2)CC1 [Compound 6, 1-(4-(6-(5-methyl-1H-pyrazol-3-ylamino)-2-(1-methyl-1H-indol-2-yl)pyrimidin-4-yl)-piperazin-1-yl)ethanone] | ≤ 1 µM | 
≤ 0.1 µM |  | ≤ 1 µM | Cc1cc(Nc2cc(NC3CCOCC3)nc(-c3cc4ccccc4n3C)n2)n[nH]1 [Compound 7, N^4-(tetrahydro-2H-pyran-4-yl)-2-(1-methyl-1H-indol-2-yl)-N^6-(5-methyl-1H-pyrazol-3-yl)pyrimidine-4,6-diamine] |  | 1 to 10 µM
≤ 0.1 µM | ≤ 0.1 µM |  | Cc1cc(Nc2cc(N3CCN(C)CC3)nc(-c3ccccc3)n2)n[nH]1 [Compound 8, N-(5-methyl-1H-pyrazol-3-yl)-6-(4-methylpiperazin-1-yl)-2-phenyl pyrimidin-4-amine] | ≤ 1 µM | 
≤ 0.1 µM | ≤ 0.1 µM |  | Cc1cc(Nc2cc(N(C)CCN(C)C)nc(-c3ccccc3)n2)n[nH]1 [Compound 9, N^4-(2-(dimethylamino)ethyl)-N^4-methyl-N^6-(5-methyl-1H-pyrazol-3-yl)-2-phenylpyrimidine-4,6-diamine] | ≤ 1 µM | 
≤ 0.1 µM | ≤ 0.1 µM |  | COCCNc1cc(Nc2cc(C)[nH]n2)nc(-c2ccccc2)n1 [Compound 10, N^4-(2-methoxyethyl)-N^6-(5-methyl-1H-pyrazol-3-yl)-2-phenylpyrimidine-4,6-diamine] |  | 1 to 10 µM
≤ 0.1 µM | ≤ 0.1 µM |  | Cc1cc(Nc2cc(NCCN3CCOCC3)nc(-c3ccccc3)n2)n[nH]1 [Compound 11, N^4-(5-methyl-1H-pyrazol-3-yl)-N^6-(2-morpholinoethyl)-2-phenylpyrimidine-4,6-diamine] | ≤ 1 µM | 
≤ 0.1 µM | ≤ 0.1 µM |  | Cc1cc(Nc2cc(NC3CCOCC3)nc(-c3ccccc3)n2)n[nH]1 [Compound 12, N^4-(tetrahydro-2H-pyran-4-yl)-N^6-(5-methyl-1H-pyrazol-3-yl)-2-phenylpyrimidine-4,6-diamine] | ≤ 1 µM | 
